System: human keratinocytes
Test: Cytotoxicity of cadmium chloride toward human keratinocytes in culture (intracellular glutathione, monochlorobimane probe), in the presence or absence of hyacinth extract
Format: cell-based
Settings: 24 hours; for toxicity toward human keratinocytes: human keratinocytes in vitro
Description: Heavy metals such as cadmium, nickel, lead, mercury, etc. can lead to cytotoxicity on the cells of various organs including the skin. The cytotoxic effect of cadmium on human keratinocytes in culture was evaluated by means of a technique using a fluorescent probe to measure the level of intracellular glutathione (J. C. Fernandez Checa et al. 1990, R. Kannan et al. 1993).
The study was performed on a monolayer culture of human keratinocytes obtained from plastic surgeries. The cells are inoculated on D-3 into 96-well culture dishes at a rate of 25 000 cells/cm^2 in 100 μl of culture medium (calf serum-free defined medium, NR2, Biofluids). The incubations are performed in an incubator at 37° C. under a humid atmosphere enriched with 5% CO2.
The cells are treated for 24 hours with increasing concentrations (0, 10, 25, 50, 75, 100, 150 and 200 μM) of cadmium chloride (CdCl2) alone, so as to determine its cytotoxicity. In parallel, a treatment is performed under the same conditions, but in the presence of hyacinth extract (0.125%). The incubations are performed in an incubator at 37° C., [lacuna]% CO2 under a humid atmosphere.
At the end of the contact period, labeling of the intracellular glutathione is performed using a specific fluorescent probe: monochlorobimane (MCB).
Briefly, after treatment, rinse the cells with buffer (PBS) so as to remove the treatment solutions.
Add 100 μl per well of a 1 mM MCB solution over one hour at room temperature and protected from light.
Eliminate the MCB, and add 200 μl/well of PBS buffer.
Read on the spectrofluorimeter (excitation: 380 nm; emission: 485 nm).
The fluorescence obtained is proportional to the amount of glutathione conjugated to the MCB.
Calculate the concentration of CdCl2 that results in a 50% drop in the level of glutathione (=IC.50)

[Cl][Cd][Cl] [cadmium chloride]
IC50 (CdCl2 alone, human keratinocyte monolayer, concentration giving 50% drop in glutathione level/cell viability, 3 independent experiments, read-out: IC.50 of cadmium chloride without protecting agent, Mean ± SEM): 43.7 µM
toxicity toward human keratinocytes (listed as Cadmium chloride): considerable toxicity
toxicity toward human keratinocytes (listed as cadmium): strong toxicity
